Laboratory results reported in patent US20220168295A1, “RIMEGEPANT FOR CGRP RELATED DISORDERS” (Biohaven Pharmaceutical Ireland DAC, priority 2018, published 2022).

Legend:
[1] = test system: subjects with Acute Migraines; assay: Study 303 (BHV3000-303) Phase 3 placebo-controlled trial, rimegepant 75 mg ODT, acute treatment of migraine: efficacy and safety; type: in vivo, human
Description: Clinical Trial—BHV3000-303: Phase 3: Double-Blind, Randomized, Placebo-Controlled, Safety and Efficacy Trial of BHV-3000 (Rimegepant) Orally Discintegrating Tablet (ODT) for the Acute Treatment of Migraine (ClinicalTrials.gov Identifier: NCT03461757) A phase 3 clinical study was conducted with 1812 participants, as follows. […] Pain freedom of rimegepant compared with placebo in the acute treatment of migraine will be measured using the number of evaluable subjects that report no pain at 2 hours post-dose. […] Pain will be measured on a 4 point Likert scale (0=none, 1=mild, 2=moderate, 3=severe) 2. Freedom from the most bothersome symptom (MBS) of rimegepant compared with placebo will be measured using the number of evaluable subjects that report the absence of their MBS at 2 hours post-dose. […] The MBS (nausea, phonophobia or photophobia) will measured using a binary scale (0=absent, 1=present). […] Pain Relief as measured by a 4 point numeric rating scale (None, Mild, Moderate, Severe) 2. […] Sustained Pain Relief as measured by a 4 point numeric rating scale (None, Mild, Moderate, Severe) 4. […] To measure rimegepant compared to placebo on the probability of requiring rescue medication will be assessed using the number of subjects that take rescue medication within […] administration of study medication (BHV3000 or placebo). […]

[2] = Pooled liver function test (LFT) profile, Study 301 and Study 302; type: in vivo, human; conditions: pooled Study 301 and 302; n = 1089
Description: (§1) In a double-blind, randomized, placebo-controlled, multicenter study (Study 301, NCT03235479) adults 3.8 years of age with at least a 1-year history of ICHD 3-beta migraine were eligible to participate. Following a 3- to 28-day screening period, subjects were randomized to receive rimegepant 75 mg or matching placebo and instructed to treat a single migraine attack with 1 dose of the blinded study drug (rimegepant or placebo) when headache pain reached moderate or severe intensity. The coprimary endpoints were pain freedom at 2 hours postdose and freedom from the most bothersome symptom (MBS) at 2 hours postdose. Safety assessments included adverse events (AEs), ECGs, vital signs, physical measurements, and routine laboratory tests, including assessment of liver function. Unless stated otherwise, values presented are mean±SD.
as §1, with “302, NCT03237845)” for “301, NCT03235479)”, “≥18” for “3.8”

N[C@@H]1c2cccnc2[C@H](OC(=O)N2CCC(n3c(=O)[nH]c4ncccc43)CC2)CC[C@H]1c1cccc(F)c1F [Rimegepant, [(5S,6S,9R)-5-amino-6-(2,3-difluorophenyl)-6,7,8,9-tetrahydro-5H-cyclohepta[b]pyridin-9-yl] 4-(2-oxo-3H-imidazo[4,5-b]pyridin-1-yl)piperidine-1-carboxylate]
Patients with LFTs >3xULN [1]: one | ALT >3x ULN, subjects n (%) [2]: 1 (0.1%) n (%) | ALT >5x ULN, subjects [2]: 0 | ALT >10x ULN, subjects [2]: 0 | ALT >20x ULN, subjects [2]: 0 | ALT >ULN, subjects n (%) [2]: 22 (2.0%) n (%) | AST >3x ULN, subjects n (%) [2]: 1 (0.1%) n (%) | AST >5x ULN, subjects [2]: 0 | AST >10x ULN, subjects [2]: 0 | AST >20x ULN, subjects [2]: 0 | AST >ULN, subjects n (%) [2]: 12 (1.1%) n (%)
